# Laboratory results taken from US6347239B1, “Method of evaluating the efficacy of drug on brain nerve cells” (priority 1998, dated 2002).
# Values joined by “and” are separate entries in the source; they are usually repeats but may differ in a detail not shown here. Equal values may be shown once.
# How the values were obtained:
# patients with ALS = assay: Clinical status and muscle strength (MRC grades) of ALS patients during therapy; type: in vivo, human
# Description: Deltoid and iliopsoas MRC grades improved bilaterally from 4 to 4+.
# Several patients agreed to longer term follow up studies. […] Patient #17 was never treated: NAA/Cr decreased from 2.51 to 2.42 after 21 days and further to 2.11 4 months later; their symptoms progressed slowly.
# [1] = tested on: primary motor cortex of patients with ALS; assay: Proton MRSI of NAA/Cr in the motor cortex of ALS patients, paired scans; type: in vivo, human
# Description: Nineteen patients with a diagnosis of definite or probable ALS, as per the El Escorial Criteria, ^12 were recruited. Each patient underwent paired MRSI examinations. […] Thus, closely paired MRSIs were obtained off medication in 12 subjects who formed a disease control group ALS-C.
# Brain proton spectroscopy was performed using a Philips Gyroscan ACS3 operating at 1.5 Tesla (Philips Medical System, Best, The Netherlands). After axial and sagittal scout images and sagittal T1-weighted images were obtained, axial T1-weighted images were acquired with an angulation determined from sagittal T1-weighted images such that the transverse plane was perpendicular to the rostral-caudal axis of the precentral gyrus. These transverse scans were used to select a volume of interest (VOI) centered on the central sulcus, high in the cranium comprised of predominantly cortical brain (FIG. 1A). Cranio-caudal (CC) thickness was 20 mm. Anteroposterior (AP) and left-right (LR) dimensions were adjusted for each patient depending on the skull size and shape to maximize size without including skull. MRSI was performed using a 90°-180°−180° (PRESS) sequence (TR=1750, TE=272, 250×250 mm FOV, 32×32 phase-encoding steps) with prior suppression of water by selective excitation. One patient had all their scans performed with TR=1500. The ROI was repositioned in the identical location in follow up scans of each patient.
# Post-processing of data, included a mild Gaussian filter and an inverse two-dimensional Fourier transform of both the water-suppressed and -unsuppressed ^1H-MRS. This was accomplished with XUNSPEC1 software (Philips Medical Systems Best, The Netherlands) running on a Sun SPARC™ station.
# The residual water signal was removed using the HSVD (Hankel Singular-Value Decomposition) algorithm which models the time-domain ^1H-MRS data in each voxel with exponentially damped sinusoids. Peaks used to model the water signal were then subtracted from the original data. This algorithm is fully automatic and requires no prior knowledge or operator intervention.
# Automated calculation of metabolite peak areas was performed on operator-selected voxels within the motor cortex. Peaks were digitally integrated to yield areas. These values were normalized by dividing them by that of Cr.
# The NAA/Cr of the primary motor cortex was determined by averaging the NAA/Cr intensities of voxels located in the precentral gyrus of both hemispheres (FIGS. 1A and 1B). The difference in motor cortex NAA/Cr between two scans (ΔNAA/Cr) obtained approximately 3 weeks apart was determined for each ALS patient in the treated (ALS-R) and control (ALS-C) groups. ΔNAA/Cr was compared between the treated and control groups using a two-sample two-sided Student's t-test. In addition, a two-sided paired Student's t-test was used to evaluate the significance of […] within each group.
structure (smiles),measurement,setting,value
"Nc1nc2ccc(OC(F)(F)F)cc2s1 [RILUZOLE, 2-amino-6-trifluoromethoxy-benzothiazole]",clinical status,"patients with ALS; patient #2, three months after the 35-day scan",increased strength and fewer cramps
same,clinical status,"patients with ALS; patient #3, three months after the 18-day scan",significant clinical deterioration
same,"clinical status (weakness, predominantly LMN features)","patients with ALS; patient #5, one year later",slowly progressed
same,symptomatic and functional changes,"patients with ALS; patient #11, after 35 days of therapy",improved strength and reduced disability
same,average NAA/Cr for the group after therapy,"[1]; 11 patients (ALS-R), 24±8 days after initiating therapy, increased from 2.14±0.26, mean±SD, p=0.044",2.27±0.24
same,ΔNAA/Cr = Change in NAA/Cr between MRSI scan #1 and #2,"[1]; ALS-R group, scan just before treatment vs approximately three weeks after starting 50 mg bid, individual patients 1-11 and group mean (n = 11)",−0.011 and 0.111 and 0.438 and 0.295 and 0.118 and 0.234 and −0.021 and −0.251 and 0.222 and 0.290 and 0.034
same,NAA/Cr MRSI #2 (NAA/Cr of motor cortex),"[1]; ALS-R group, second scan approximately three weeks after starting 50 mg bid, individual patients 1-11 and group mean (n = 11)",2.508 and 2.643 and 2.442 and 2.416 and 2.423 and 2.291 and 1.890 and 2.083 and 2.247 and 1.969 and 2.053
same,change in NAA/Cr for the treated group with respect to the untreated group (increase),"[1]; ALS-R vs ALS-C, approximately 3 weeks, mean±SE, p=0.008",0.22±0.095
same,NAA/Cr,"[1]; patient #2, after 35 days of therapy, from 2.53",2.64
same,NAA/Cr,"[1]; patient #2, three months later than the 35-day scan",2.74
same,NAA/Cr,"[1]; patient #3, after 18 days of therapy, from 2.00",2.44
same,NAA/Cr,"[1]; patient #3, three months later than the 18-day scan",1.46
same,NAA/Cr,"[1]; patient #5, after 21 days of therapy, from 2.24",2.31
same,NAA/Cr,"[1]; patient #5, one year later",2.42
same,signal from NAA in the motor cortex,"[1]; patients with ALS, acute (within 3 weeks) after treatment",increase
